What was measured:
[1] = tested on: LN686, FADU, H226B, OSC19, and UMSCC38 cells; assay: MTS cell proliferation, combined treatment in PCPs; type: cell-based, human; conditions: 7 days
Protocol: Cells were cultured in 96-well poly(poly-2-hydroxyethyl methacrylate [HEMA])-coated plates (PCPs) or ultra-low attached plates (UAPs). Control IgG1 (25 μg/ml), cixutumumab (25 μg/ml), PP2 (10 μM), and an integrin β3 neutralizing antibody B3A (10 μg/ml) were diluted in culture media containing 10% FBS or IGF-1 and treated alone or in combination. To examine the effect on cancer cell proliferation, a 3-(4,5-dimethylthiazol-2-yl)-2,5-diphenyltetrazolium bromide (MTT) or 3-(4,5-dimethylthiazol-2-yl)-5-(3-carboxymethoxyphenyl)-2-(4-sulfophenyl)-2H-tetrazolium (MTS) assay was performed, and to evaluate the effect on anchorage-independent colony formation, a soft agar colony formation assay was performed according to a method in our previous report (Morgillo et al., 2006).
In addition, the LN686, FADU, H226B, OSC19, and UMSCC38 cells grown in PCPs were untreated or treated with cixutumumab (25 μg/ml), anti-integrin β3 mAb (αβ3, 10 μg/ml), PP2 (10 μM), or a combination thereof for 7 days. Each bar represents the mean±SD of 6 wells treated with the same sample in one representative experiment.

[2] = tested on: integrin β3/Src signaling; assay: Western blot after integrin β3 or Src blockade; type: cell-based, human; design: p-EGFR, p-Src, and p-Akt levels: dose or concentration left out as unconfirmed
Protocol: Specifically, cixutumumab-resistant cells (LN686 and FADU) and cixutumumab-sensitive cells (OSC19) grown in PCPs were treated with B3A […] or PP2 […] for 1 hour prior to activation with IGF-1 (100 ng/ml).
In addition, the LN686 and FADU cells grown in the PCPs were untreated or treated with cixutumumab ([…]), PP2 (10 μM), an anti-integrin β1 monoclonal antibody (A11B2, 10 μg/ml), Ad-EV or Ad-CSK (10 pfu/cell) for 7 days prior to stimulation with IGF-1 (100 ng/ml, 30 min), and to detect the proteins, western blot analysis was performed.

CC(C)(C)n1nc(-c2ccc(Cl)cc2)c2c(N)ncnc21 [PP2]
antiproliferative activities of cixutumumab on combined treatment ([1]; cixutumumab-resistant cells (LN686, FADU, H226B)): significantly augmented
antiproliferative activities of cixutumumab on combined treatment ([1]; cixutumumab-sensitive cells (OSC19 and UMSCC38)): not
p-EGFR, p-Src, and p-Akt levels ([2]; LN686, FADU and OSC19, 6 h): marked decreases
cixutumumab-induced increases in p-Src, p-FAK, p-EGFR, p-Akt, and p-mTOR ([2]; LN686 or FaDu cells, integrin β3 mAb 100 μg/ml or PP2 10 μM): almost completely blocked

— patent US20140341922A1, “Method for Overcoming Tolerance to Targeted Anti-Cancer Agent” (SUN R&DB Foundation, priority 2011, published 2014)
